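Cells were grown in 96-well plates and exposed to each compound for 48 hours at five concentrations; endpoints were interpolated linearly between bracketing concentrations, or set to the highest concentration if not reached. At the GI50, growth is halved.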 Calls of active or inactive are those of the source. Cut-off read from the data, not from the text of the source: active = GI50 up to about 1.1 µM and inactive = higher.
Key:
Experiment in all cases: DTP human tumour cell line panel, 48 h
786-0 = system: 786-0
A498 = system: A498
A549 = system: A549
ACHN = system: ACHN
CCRF-CEM = system: CCRF-CEM
DU-145 = system: DU-145
EKVX = system: EKVX
HCC 2998 = system: HCC 2998
HCT-116 = system: HCT-116
HCT-15 = system: HCT-15
HL-60 = system: HL-60
HOP-62 = system: HOP-62
HOP-92 = system: HOP-92
HT-29 = system: HT-29
Hs-578T = system: Hs-578T
IGROV-1 = system: IGROV-1
K562 = system: K562
LOX IMVI = system: LOX IMVI
M14 = system: M14
MCF7 = system: MCF7
MDA-MB-435 = system: MDA-MB-435
MDA-N = system: MDA-N
MOLT-4 = system: MOLT-4
Malme-3M = system: Malme-3M
NCI-H226 = system: NCI-H226
NCI-H23 = system: NCI-H23
NCI-H460 = system: NCI-H460
NCI-H522 = system: NCI-H522
NCI/ADR-RES = system: NCI/ADR-RES
OVCAR-3 = system: OVCAR-3
OVCAR-4 = system: OVCAR-4
OVCAR-5 = system: OVCAR-5
OVCAR-8 = system: OVCAR-8
PC-3 = system: PC-3
RPMI-8226 = system: RPMI-8226
RXF 393 = system: RXF 393
SF-268 = system: SF-268
SF-295 = system: SF-295
SF-539 = system: SF-539
SK-MEL-28 = system: SK-MEL-28
SK-MEL-5 = system: SK-MEL-5
SN12C = system: SN12C
SNB-19 = system: SNB-19
SNB-75 = system: SNB-75
SR = system: SR
SW-620 = system: SW-620
T47D = system: T47D
TK-10 = system: TK-10
U-251 = system: U-251
UACC-257 = system: UACC-257
UACC-62 = system: UACC-62
CAKI-1 = system: CAKI-1
COLO 205 = system: COLO 205
KM12 = system: KM12
MDA-MB-231 = system: MDA-MB-231
SK-MEL-2 = system: SK-MEL-2
SK-OV-3 = system: SK-OV-3
UO-31 = system: UO-31

O=C([O-])C1([n+]2c(-c3ccccc3)cc(-c3ccccc3)cc2-c2ccccc2)CC1
GI50 (786-0): 57.1 µM (inactive)
GI50 (A498): > 100 µM (inactive)
GI50 (A549): > 100 µM (inactive)
GI50 (ACHN): > 100 µM (inactive)
GI50 (CCRF-CEM): 48.2 µM (inactive)
GI50 (DU-145): > 100 µM (inactive)
GI50 (EKVX): 22.7 µM (inactive)
GI50 (HCC 2998): 29.3 µM (inactive)
GI50 (HCT-116): 41.1 µM (inactive)
GI50 (HCT-15): > 100 µM
GI50 (HL-60): 21.8 µM (inactive)
GI50 (HOP-62): > 100 µM (inactive)
GI50 (HOP-92): 19.8 µM (inactive)
GI50 (HT-29): 48.8 µM (inactive)
GI50 (Hs-578T): 56.8 µM (inactive)
GI50 (IGROV-1): 32.8 µM (inactive)
GI50 (K562): 27.5 µM (inactive)
GI50 (LOX IMVI): 82.6 µM (inactive)
GI50 (M14): 43.6 µM (inactive)
GI50 (MCF7): 28.1 µM (inactive)
GI50 (MDA-MB-435): 19.2 µM (inactive)
GI50 (MDA-N): 53.8 µM (inactive)
GI50 (MOLT-4): 65.6 µM (inactive)
GI50 (Malme-3M): 34.5 µM (inactive)
GI50 (NCI-H226): > 100 µM (inactive)
GI50 (NCI-H23): 86.9 µM (inactive)
GI50 (NCI-H460): 74.5 µM (inactive)
GI50 (NCI-H522): 54.7 µM (inactive)
GI50 (NCI/ADR-RES): > 100 µM (inactive)
GI50 (OVCAR-3): 38.6 µM (inactive)
GI50 (OVCAR-4): 96.8 µM (inactive)
GI50 (OVCAR-5): > 100 µM (inactive)
GI50 (OVCAR-8): > 100 µM (inactive)
GI50 (PC-3): 80.4 µM (inactive)
GI50 (RPMI-8226): 32.2 µM (inactive)
GI50 (RXF 393): > 100 µM (inactive)
GI50 (SF-268): 42.3 µM (inactive)
GI50 (SF-295): > 100 µM (inactive)
GI50 (SF-539): > 100 µM (inactive)
GI50 (SK-MEL-28): > 100 µM (inactive)
GI50 (SK-MEL-5): 19.6 µM (inactive)
GI50 (SN12C): > 100 µM (inactive)
GI50 (SNB-19): 43.2 µM (inactive)
GI50 (SNB-75): 46.8 µM (inactive)
GI50 (SR): 76.2 µM (inactive)
GI50 (SW-620): > 100 µM (inactive)
GI50 (T47D): 16 µM (inactive)
GI50 (TK-10): > 100 µM (inactive)
GI50 (U-251): 28.7 µM (inactive)
GI50 (UACC-257): 25.4 µM (inactive)
GI50 (UACC-62): 21.5 µM (inactive)

Cc1cccc2c(=O)c3cccc([C@@H](C)C(=O)O)c3oc12
GI50 (786-0): > 100 µM (inactive)
GI50 (A498): > 100 µM (inactive)
GI50 (A549): > 100 µM (inactive)
GI50 (ACHN): > 100 µM (inactive)
GI50 (CAKI-1): > 100 µM (inactive)
GI50 (CCRF-CEM): > 100 µM (inactive)
GI50 (COLO 205): > 100 µM (inactive)
GI50 (DU-145): > 100 µM (inactive)
GI50 (EKVX): > 100 µM (inactive)
GI50 (HCC 2998): > 100 µM (inactive)
GI50 (HCT-116): > 100 µM (inactive)
GI50 (HCT-15): > 100 µM
GI50 (HL-60): > 100 µM (inactive)
GI50 (HOP-62): > 100 µM (inactive)
GI50 (HOP-92): > 100 µM (inactive)
GI50 (HT-29): > 100 µM (inactive)
GI50 (Hs-578T): > 100 µM (inactive)
GI50 (IGROV-1): > 100 µM (inactive)
GI50 (K562): > 100 µM (inactive)
GI50 (KM12): > 100 µM (inactive)
GI50 (LOX IMVI): > 100 µM (inactive)
GI50 (M14): > 100 µM (inactive)
GI50 (MDA-MB-231): > 100 µM (inactive)
GI50 (MDA-MB-435): > 100 µM (inactive)
GI50 (MDA-N): > 100 µM (inactive)
GI50 (MOLT-4): > 100 µM (inactive)
GI50 (NCI-H226): > 100 µM (inactive)
GI50 (NCI-H23): > 100 µM (inactive)
GI50 (NCI-H460): > 100 µM (inactive)
GI50 (NCI-H522): > 100 µM (inactive)
GI50 (NCI/ADR-RES): > 100 µM (inactive)
GI50 (OVCAR-3): > 100 µM (inactive)
GI50 (OVCAR-4): > 100 µM (inactive)
GI50 (OVCAR-8): > 100 µM (inactive)
GI50 (PC-3): > 100 µM (inactive)
GI50 (RPMI-8226): > 100 µM (inactive)
GI50 (SF-268): > 100 µM (inactive)
GI50 (SF-295): > 100 µM (inactive)
GI50 (SF-539): > 100 µM (inactive)
GI50 (SK-MEL-28): > 100 µM (inactive)
GI50 (SK-MEL-2): 80.7 µM (inactive)
GI50 (SK-MEL-5): > 100 µM (inactive)
GI50 (SK-OV-3): > 100 µM (inactive)
GI50 (SN12C): > 100 µM (inactive)
GI50 (SNB-19): > 100 µM (inactive)
GI50 (SR): > 100 µM (inactive)
GI50 (SW-620): > 100 µM (inactive)
GI50 (T47D): > 100 µM (inactive)
GI50 (TK-10): > 100 µM (inactive)
GI50 (U-251): > 100 µM (inactive)
GI50 (UACC-257): > 100 µM (inactive)
GI50 (UACC-62): > 10 µM (inactive)
GI50 (UO-31): > 100 µM (inactive)

CC(=O)O[C@H]1C(=O)[C@@]2(C)C(C(OC(=O)c3ccccc3)[C@]3(O)CC(OC(=O)[C@H](OC(=O)CCC(=O)O)C(NC(=O)c4ccccc4)c4ccccc4)C(C)=C1C3(C)C)C1(OC(C)=O)COC1C[C@@H]2OC(=O)CCC(=O)O (stereo partly specified)
GI50 (OVCAR-4): > 50.6 µM (inactive)
GI50 (UO-31): 79.1 µM (inactive)

— ChEMBL document CHEMBL1201862, “PubChem BioAssay data set” (2004)
